According to article PMC6697720, “Saturation of acyl chains converts cardiolipin from an antagonist to an activator of Toll-like receptor-4” (Cellular and Molecular Life Sciences: CMLS, 2019):

Legend:
human PBMCs = experiment: LPS-induced TNF-α and IL-1β release in human PBMCs; assay type: cell-based; conditions: LPS 100 ng/mL
Method: Blood from healthy volunteers was collected upon informed consent. PBMCs were obtained by Ficoll gradient centrifugation in Histopaque-1077 (Sigma-Aldrich, St Louis, Missouri, United States) using SepMate™ isolation tubes from STEMCELL™ according to the manufacturer’s instructions. Isolated PBMCs were resuspended in RPMI 1640 supplemented with 10% heat-inactivated FBS.
(§1) 100.000 of freshly isolated PBMCs or monocytes were mixed with stimulants to a final volume of 160 μL/well in round bottom 96-well plates.
(§2) After stimulation, supernatants were collected, centrifuged, and assayed for cytokine secretion, while cells were assayed for viability.
TNF-α and IP-10 were quantified in cell supernatants using DuoSet ELISA kits from R&D Systems and human IL-1β using Instant ELISA™ Kit from Invitrogen, according to the manufacturer’s instructions. Absorbance was read with a BioTek Synergy HT Microplate Readers. […]

primary human monocytes = experiment: TNF-α and IL-1β secretion in primary human monocytes incubated with CL; assay type: cell-based; conditions: with NLRP3 inhibitor MCC950
Method: Human monocytes were isolated from PBMCs by immunomagnetic negative selection using the EasySep™ human monocyte enrichment kit without CD16 depletion (STEMCELL™ Technologies).
as §1, §2
TNF-α and IP-10 were quantified in cell supernatants using DuoSet ELISA kits from R&D Systems and human IL-1β using Instant ELISA™ Kit from Invitrogen, according to the manufacturer’s instructions. Absorbance was read with a BioTek Synergy HT Microplate Readers.
Fig. 3 Saturated but not unsaturated CLs have pro-inflammatory properties. a RAW-Blue™ cells were incubated overnight with the indicated amount of CL or LPS, supernatants were collected, and NF-κB activation quantified via Quanti-Blue™ test and reported here as fold induction as compared to control. Unpaired t test: differences with respect to the control (Ctrl) are not significant if p > 0.05 (no symbol); *p ≤ 0.0007. b Immortalized BMDM cells were incubated overnight with the indicated amount of CL or LPS; supernatants were collected and TNF-α quantified via ELISA assay. c, d Primary human monocytes were incubated overnight with the indicated amount of CL or LPS with or without the NLRP3 inhibitor MCC950, supernatants were collected, and TNF-α and IL-1β were quantified via ELISA assay. Graphs are representative of experiments from six different donors. Unpaired t test: differences with respect to the control (Ctrl) are not significant if p > 0.05 (no symbol); *p ≤ 0.021. Each bar represents the mean + standard deviation of three biological replicates (n = 3). Graphs are representative of at least three independent experiments
C18:0 and C18:2 CLs’ pro-inflammatory activities were validated in primary monocytes isolated from human donor blood. C18:0 CL but not C18:2 CL reproduced LPS activity inducing TNF-α and IL-1β secretion in a dose-dependent manner (Fig. 3c, d).

With `CC(C)(O)c1coc(S(=O)(=O)NC(=O)Nc2c3c(cc4c2CCC4)CCC3)c1` [MCC950] the “inhibition of LPS-induced TNF-α secretion” value (human PBMCs; 4 h) was “not”, the “inhibition of LPS-induced IL-1β secretion” value (human PBMCs; 16 h) was “able to inhibit” and the “inhibition of saturated CL-induced IL-1β secretion” value (primary human monocytes) was “inhibited”.
